Data on 15 compounds can be found in EP0901466B1, “BIPHENYLSULFONAMIDE MATRIX METALLOPROTEINASE INHIBITORS” (WARNER-LAMBERT COMPANY, priority 1996, dated 1997).

pIC50: −log10 of the molar value.

Chain of stromelysin catalytic domain (P08254 100-272 limits assumed): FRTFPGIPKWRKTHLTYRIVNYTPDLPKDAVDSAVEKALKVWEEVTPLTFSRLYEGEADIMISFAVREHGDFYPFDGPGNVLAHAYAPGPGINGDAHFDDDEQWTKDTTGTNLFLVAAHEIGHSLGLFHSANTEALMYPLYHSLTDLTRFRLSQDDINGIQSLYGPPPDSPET

The target of one assay is T1, full-length gelatinase B (Homo sapiens, UniProt P14780).
T1 construct: full-length gelatinase B (FLGB) hydrolysis of thiopeptolide
T1 sequence (P14780 94-707, species assumed): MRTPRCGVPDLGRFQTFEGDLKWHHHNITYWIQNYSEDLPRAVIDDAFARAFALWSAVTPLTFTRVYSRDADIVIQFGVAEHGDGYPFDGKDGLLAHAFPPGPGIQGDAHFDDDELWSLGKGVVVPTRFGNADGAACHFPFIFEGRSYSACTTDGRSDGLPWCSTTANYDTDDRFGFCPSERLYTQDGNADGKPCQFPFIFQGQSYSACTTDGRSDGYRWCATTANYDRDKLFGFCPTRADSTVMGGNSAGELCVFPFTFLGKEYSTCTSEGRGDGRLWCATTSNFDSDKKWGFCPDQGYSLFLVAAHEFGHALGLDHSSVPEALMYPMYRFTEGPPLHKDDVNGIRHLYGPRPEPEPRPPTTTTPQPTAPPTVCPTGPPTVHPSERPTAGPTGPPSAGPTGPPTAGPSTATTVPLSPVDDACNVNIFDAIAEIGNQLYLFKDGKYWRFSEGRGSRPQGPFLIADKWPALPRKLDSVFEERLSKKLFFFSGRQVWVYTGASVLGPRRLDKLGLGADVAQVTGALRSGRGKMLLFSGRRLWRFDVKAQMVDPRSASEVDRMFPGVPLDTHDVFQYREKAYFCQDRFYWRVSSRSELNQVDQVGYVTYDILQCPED
The assay can be described thus: full-length gelatinase B hydrolysis of thiopeptolide (FLGB). The class given is biochemical. The conditions noted are these: thiopeptolide substrate. From the text: (§1) The compounds were additionally evaluated for their ability to inhibit full-length collagenase hydrolysis of thiopeptolide substrate (FLC) and full-length gelatinase B (FLGB) hydrolysis of thiopeptolide.
For `CC(C)[C@H](NS(=O)(=O)c1ccc(-c2ccc(Br)cc2)cc1)C(=O)O` [Example 1, (S)-2-(4'-Bromo-biphenyl-4-sulfonylamino)-3-methyl-butyric acid], the negative logarithm of the IC50 (pIC50) – broadly, −log10 of the IC50, conventionally taken in molar units – is 5.08.
For the compound `CC(C)[C@H](NS(=O)(=O)c1ccc(-c2ccc(Cl)cc2)cc1)C(=O)O` [Example 2, (S)-2-(4'-Chloro-biphenyl-4-sulfonylamino)-3-methyl-butyric acid], the pIC50 is 4.64.

A further assay has as its target stromelysin catalytic domain (Homo sapiens, UniProt P08254). The assay can be described thus: stromelysin catalytic domain hydrolysis of thiopeptolide (SCD (T)). The class given is biochemical.
Settings: not given
Compound `CC(C)[C@H](NS(=O)(=O)c1ccc(-c2ccc(Cl)cc2)cc1)C(=O)O` [Example 2, (S)-2-(4'-Chloro-biphenyl-4-sulfonylamino)-3-methyl-butyric acid] had a pIC50 of 7.00.
On the same count and under the same terms, the result for `CC(C)[C@H](NS(=O)(=O)c1ccc(-c2ccc(C#N)cc2)cc1)C(=O)O` [Example 5, (S)-2-(4'-Cyano-biphenyl-4-sulfonylamino)-3-methyl-butyric acid] reads 8.05; that for `COc1ccc(-c2ccc(S(=O)(=O)N[C@H](C(=O)O)C(C)C)cc2)cc1` [Example 15, (S)-2-(4'-Methoxy-biphenyl-4-sulfonylamino)-3-methyl-butyric acid], 8.10.

The assay is the same for the next values; noted with them: thiopeptolide substrate; read-out: SCD (T) (IC50).
On to `CC(C)[C@H](NS(=O)(=O)c1ccc(-c2ccc([N+](=O)[O-])cc2)cc1)C(=O)O` [Example 3, (S)-3-Methyl-2-(4'-nitro-biphenyl-4-sulfonylamino)-butyric acid], for which the pIC50 is 7.51.
Consider `CC(C)[C@H](NS(=O)(=O)c1ccc(-c2ccc(N)cc2)cc1)C(=O)O` [Example 4, (S)-2-(4'-Amino-biphenyl-4-sulfonylamino)-3-methyl-butyric acid], for which the pIC50 was 7.17.
On the same count and under the same terms, for `CC(C)[C@H](NS(=O)(=O)c1ccc(-c2cccc(Br)c2)cc1)C(=O)O` [Example 7, (S)-2-(3'-Bromo-biphenyl-4-sulfonylamino)-3-methyl-butyric acid] the value was 6.46; for `CC(C)[C@H](NS(=O)(=O)c1ccc(-c2ccc(Br)cc2F)cc1)C(=O)O` [Example 8, (S)-2-(4'-Bromo-2'-fluoro-biphenyl-4-sulfonylamino)-3-methyl-butyric acid], 7.52; for `O=C(O)[C@H](Cc1ccccc1)NS(=O)(=O)c1ccc(-c2ccc(Br)cc2)cc1` [Example 10, (S)-2-(4'-Bromo-biphenyl-4-sulfonylamino)-3-phenyl-propionic acid], 7.59.
Still for that read-out and setting: the result for `O=C(O)CNS(=O)(=O)c1ccc(-c2ccc(Br)cc2)cc1` [Example 12, (4'-Bromo-biphenyl-4-sulfonylamino)-acetic acid] reads 7.22; that for `C[C@H](NS(=O)(=O)c1ccc(-c2ccc(Br)cc2)cc1)C(=O)O` [Example 13, (S)-2-(4'-Bromo-biphenyl-4-sulfonylamino)-propionic acid], 7.55; that for `CC(C)C[C@H](NS(=O)(=O)c1ccc(-c2ccc(Br)cc2)cc1)C(=O)O` [Example 14, (S)-2-(4'-Bromo-biphenyl-4-sulfonylamino)-4-methyl-pentanoic acid], 7.89.
Regarding `CC(C)[C@H](NS(=O)(=O)c1ccc(-c2ccc(F)cc2)cc1)C(=O)O` [Example 16, (S)-2-(4'-Fluoro-biphenyl-4-sulfonylamino)-3-methyl-butyric acid], the pIC50 is 7.85.
On the same count and under the same terms, for `CC(C)[C@H](NS(=O)(=O)c1ccc(-c2cccc(F)c2)cc1)C(=O)O` [Example 17, (S)-2-(3'-Fluoro-biphenyl-4-sulfonylamino)-3-methyl-butyric acid] the value was 7.57; for `Cc1ccc(-c2ccc(S(=O)(=O)N[C@H](C(=O)O)C(C)C)cc2)cc1` [Example 18, (S)-3-Methyl-2-(4'-methyl-biphenyl-4-sulfonylamino)-butyric acid], 7.92.

The target in the next assay is T2, full-length collagenase (Homo sapiens, UniProt P03956).
T2 sequence (P03956 100-469): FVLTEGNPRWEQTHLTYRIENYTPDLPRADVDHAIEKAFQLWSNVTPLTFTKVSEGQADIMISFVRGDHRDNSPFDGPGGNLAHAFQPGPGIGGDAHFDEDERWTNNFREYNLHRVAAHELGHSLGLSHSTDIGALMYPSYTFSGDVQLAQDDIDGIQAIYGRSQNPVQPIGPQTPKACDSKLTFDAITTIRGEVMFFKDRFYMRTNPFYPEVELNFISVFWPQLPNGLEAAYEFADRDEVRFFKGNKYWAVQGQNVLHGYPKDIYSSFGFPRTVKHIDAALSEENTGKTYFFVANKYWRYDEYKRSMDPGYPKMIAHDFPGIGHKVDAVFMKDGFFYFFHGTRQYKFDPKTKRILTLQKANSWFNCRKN
The assay can be described thus: full-length collagenase hydrolysis of thiopeptolide substrate (FLC). The class given is biochemical.
Settings: not given
Text: as §1
In turn, `CC(C)[C@H](NS(=O)(=O)c1ccc(-c2ccc(Cl)cc2)cc1)C(=O)O` [Example 2, (S)-2-(4'-Chloro-biphenyl-4-sulfonylamino)-3-methyl-butyric acid] showed a pIC50 of 5.12.
